According to patent publication US20260132128A1, “COMPOUND FOR RECOVERING P53 MUTATION FUNCTION AND USE THEREOF” (SHENZHEN ZHONGGE BIOLOGICAL TECHNOLOGY CO., LTD., priority 2022, published 2026):
Marks after values point to notes of the source that are not given here.

Assays:
NUGC-3 cells = experiment: NUGC-3 cell proliferation assay (CTG); type: cell-based, human; settings: for GI50: 6 days, CTG; for Compound GI50 (nM)/Reference compound GI50 (nM): multiple ratio of GI50 of the compound to the reference compound
Method: In order to detect the inhibitory effect of the aforementioned compounds on the proliferation ability of NUGC-3 cells, 250 NUGC-3 cells (Nanjing Cobioer Biosciences Co., Ltd., CBP60492) were seeded into a 384-well plate (Corning 3765), 35 μL per well, and incubated overnight in a constant temperature incubator at 37° C. and 5% CO2. Then, 40 nL of the compound was added to the 384-well plate using an Echo 655 Liquid Handler, with a maximum final concentration of 10 μM, 1:3 serial dilutions, and a total of 10 doses. The culture was performed at 37° C. and 5% CO2 for 6 days. The plate was taken out from the incubator and equilibrated at room temperature for 10 minutes. 20 μL of CTG (Promage G7572) was added to each well of the plate according to the platemap. The plate was centrifuged at 1000 rpm for 1 min. The lysis of cells was induced by mixing on a shaker for 2 min. The plate was centrifuged at 1000 rpm for 1 min. Incubation was performed at room temperature for 10 min to stabilize luminescence signals. Luminescence values were recorded by Envision (PerkinElmer 2105-0020). GraphPad 9.0 was used to fit the inhibition rate and compound concentration into a nonlinear regression curve (dose response-variable slope) to calculate GI50, inhibition rate={1−(A−B)/(C−B)}*100%, A=signal value of compound; B=average signal of blank control; C=average signal of negative control (wherein negative control was 0.1% DMSO).

p53 Y220C [1] = molecular target: T1, p53 Y220C (Homo sapiens, UniProt P04637, P309S/R273H/Y220C); experiment: DNA binding test (HTRF): binding of P53Y220C protein to DNA; type: biochemical; settings: HTRF, activation of p53 Y220C (aa 94-312) binding to biotin DNA
T1 construct: a truncated mutant containing only amino acids 94-312 of p53; made in house; host or cells: E. coli
Method: (§1) In order to detect the ability of the aforementioned compounds to increase the binding of P53Y220C protein to DNA, the binding activity of p53 Y220C was measured by homogeneous time-resolved fluorescence (HTRF). Recombinant His-tagged p53 Y220C for HTRF measurement was expressed in bacteria E. coli. The recombinant protein was a truncated mutant containing only amino acids 94-312 of p53, and its sequence was […] […] VEGNLR […] TFRh[…] […]. The sense strand of the DNA double strand was 5′-[…]-3′, with a biotin tag at the 5′ end for activity assay, and the antisense strand was 5′-[…]-3′ 40 mL of assay buffer (20 mM Tris HCL, pH 7.5, 50 mM NaCl, 2 mM MgCl2, 0.02% Tween 20, 0.01% BSA, 1 mM DTT) was prepared. 10 mM compound was prepared and subjected to 3-fold dilution to obtain 10 dose gradient dilutions of the compound. 20 nL of the compound was added to a 384-well assay plate (PerkinElmer 6007299) using an Echo 655 Liquid Handler. P53Y220C protein was dissolved in assay buffer to reach a final concentration of 150 nM, and 5 μL thereof was added to each well, and incubated at room temperature for 5 min. DNA was dissolved in assay buffer to reach a final concentration of 150 nM, and 5 μL thereof was added to each well, and incubated at room temperature for 15 min. Anti 6HIS-XL665 (Cisbio 61HISXLB) was dissolved in assay buffer to reach a final concentration of 20 nM, and 5 μL thereof was added to each well. Streptavidin-Eu cryptate (Cisbio 610SAKLA) was dissolved in assay buffer to reach a final concentration of 0.625 nM, and 5 μL thereof was added to each well, and incubated at 27° C. for 1 hour. The plate was then read for signal values on an Envision (PerkinElmer 2105-0020) plate reader at 665 nm and 615 nm, respectively. […] Activation rate={(A-C)/(C)}*100%, A=(signal value at 665 nm/signal value at 615 nm); C=average signal of negative control (wherein, negative control referred to 0.1% DMSO).

p53 Y220C [2] = molecular target: T2, p53 Y220C (Homo sapiens, UniProt P04637, Y220C); experiment: as above; type: biochemical; settings: multiple ratio of EC50 of the compound to the reference compound, DNA binding test
T2 construct: a truncated mutant containing only amino acids 94-312 of p53; made in house; host or cells: E. coli
Method: as §1

EC50 (p53 Y220C [1]) [nM]	Structure (SMILES)	GI50 (NUGC-3 cells) [nM]	Compound GI50 (nM)/Reference compound GI50 (nM) (NUGC-3 cells)	Compound EC50 (nM)/Reference compound EC50 (nM) (p53 Y220C [2])	GI50 (NUGC-3 cells; Homo sapiens, NUGC-3, 144 h) [nM]
< 100	CNC(=O)c1ccc(NCC#Cc2nc3c(NC4CCC(N5CC6(COC6)C5)CC4F)cccn3c2CC(F)(F)F)c(OC)c1 (single isomer, unassigned) [Compound 35-6h]	1000 to 5000	C (C: GI50 of the compound ≥ 3 * GI50 of the reference compound)	B (B: EC50 of the reference compound<EC50 of the compound≤3.0*EC50 of the reference compound)	–
100 to 500	CNC(=O)c1ccc(NCC#Cc2nc3c(NC4CCC(N5CC6(COC6)C5)CC4F)cccn3c2CC(F)(F)F)c(OC)c1 (single isomer, unassigned) [Compound 35-6e]	≥ 5000	C (C: GI50 of the compound ≥ 3 * GI50 of the reference compound)	C (C: EC50 of the compound≥3*EC50 of the reference compound)	–
100 to 500	CN1CCC(Nc2cccn3c(CC(F)(F)F)c(-c4nnc(CNC(=O)c5cnn(Cc6ccccc6)c5)s4)nc23)CC1 [Compound 23]	–	C (C: GI50 of the compound ≥ 3 * GI50 of the reference compound)	B (B: EC50 of the reference compound<EC50 of the compound≤3.0*EC50 of the reference compound)	1000 to 5000
≥ 1000	CNC(=O)c1ccc(NCC#Cc2nc3c(NC4CCN(C)CC4)cncn3c2CC(F)(F)F)c(OC)c1 [Compound 2]	–	C (C: GI50 of the compound ≥ 3 * GI50 of the reference compound)	C (C: EC50 of the compound≥3*EC50 of the reference compound)	–
< 100	CNC(=O)c1ccc(NCC#Cc2nc3c(NC4CCC(N5CC6(COC6)C5)CC4F)cccn3c2CC(F)(F)F)c(OC)c1 (single isomer, unassigned) [Compound 35-6j]	< 1000	C (C: GI50 of the compound ≥ 3 * GI50 of the reference compound)	C (C: EC50 of the compound≥3*EC50 of the reference compound)	–
100 to 500	CNC(=O)c1ccc(NCC#Cc2nc3c(NC4CCC(N5CC6CCC(C5)O6)CC4)cccn3c2CC(F)(F)F)c(OC)c1 (stereo not drawn) [Compound 34]	–	C (C: GI50 of the compound ≥ 3 * GI50 of the reference compound)	C (C: EC50 of the compound≥3*EC50 of the reference compound)	–
100 to 500	CNC(=O)c1ccc(NCC#Cc2nc3c(NC4CCN(CC(O)COC)CC4)cccn3c2CC(F)(F)F)c(OC)c1 (stereo not drawn) [Compound 7]	–	C (C: GI50 of the compound ≥ 3 * GI50 of the reference compound)	C (C: EC50 of the compound≥3*EC50 of the reference compound)	1000 to 5000
100 to 500	COc1cc(P(C)(C)=O)ccc1NCC#Cc1nc2c(N[C@@H]3CCN(C)C[C@@H]3F)cccn2c1CC(F)(F)F [Compound 14]	–	B (B: GI50 of the reference compound < GI50 of the compound ≤ 3.0 * GI50 of the reference compound)	B (B: EC50 of the reference compound<EC50 of the compound≤3.0*EC50 of the reference compound)	1000 to 5000
100 to 500	COc1cc(C(=O)NC2CCOCC2)ccc1NCC#Cc1nc2c(NC3CCN(C)CC3)cccn2c1CC(F)(F)F [Compound 29]	–	C (C: GI50 of the compound ≥ 3 * GI50 of the reference compound)	C (C: EC50 of the compound≥3*EC50 of the reference compound)	1000 to 5000
500 to 1000	CN1CCC(Nc2cccn3c(CC(F)(F)F)c(-c4noc(CNC(=O)c5ccn(C(C)(C)C)c5)n4)nc23)CC1 [Compound 17]	–	C (C: GI50 of the compound ≥ 3 * GI50 of the reference compound)	C (C: EC50 of the compound≥3*EC50 of the reference compound)	–
100 to 500	CNC(=O)c1ccc(NCc2nnc(-c3nc4c(NC5CCN(C)CC5)cccn4c3CC(F)(F)F)s2)c(OC)c1 [Compound 18]	–	C (C: GI50 of the compound ≥ 3 * GI50 of the reference compound)	C (C: EC50 of the compound≥3*EC50 of the reference compound)	1000 to 5000
100 to 500	CNC(=O)c1ccc(NCC#Cc2nc3c(NC4CCC(F)(F)CC4)cccn3c2CC(F)(F)F)c(OC)c1 [Compound 6]	–	C (C: GI50 of the compound ≥ 3 * GI50 of the reference compound)	C (C: EC50 of the compound≥3*EC50 of the reference compound)	≥ 5000
< 100	COc1cc(C(=O)N2CCC2)ccc1NCC#Cc1nc2c(N[C@@H]3CC[C@@H](N4CC5(COC5)C4)C[C@@H]3F)cccn2c1CC(F)(F)F [Compound 51]	–	C (C: GI50 of the compound ≥ 3 * GI50 of the reference compound)	A (A: EC50 of the compound≤EC50 of the reference compound)	–
100 to 500	CNC(=O)c1ccc(NCC#Cc2nc3c(NC4CCC(N(C)[C@@H]5CCOC5)CC4)cccn3c2CC(F)(F)F)c(OC)c1 (stereo partly drawn) [Compound 33]	–	C (C: GI50 of the compound ≥ 3 * GI50 of the reference compound)	C (C: EC50 of the compound≥3*EC50 of the reference compound)	–
< 100	CNC(=O)c1ccc(NCC#Cc2nc3c(NC4CC[C@@H](N5CCC5)C[C@@H]4F)cccn3c2CC(F)(F)F)c(OC)c1 (stereo partly drawn) [Compound 40]	–	B (B: GI50 of the reference compound < GI50 of the compound ≤ 3.0 * GI50 of the reference compound)	B (B: EC50 of the reference compound<EC50 of the compound≤3.0*EC50 of the reference compound)	< 1000
100 to 500	CN1CCC(Nc2cccn3c(CC(F)(F)F)c(-c4nnc(CNC(=O)c5cnn(C6CCOC6)c5)s4)nc23)CC1 (stereo not drawn) [Compound 22]	–	C (C: GI50 of the compound ≥ 3 * GI50 of the reference compound)	B (B: EC50 of the reference compound<EC50 of the compound≤3.0*EC50 of the reference compound)	≥ 5000
< 100	[2H]C([2H])([2H])NC(=O)c1ccc(NCC#Cc2cc3c(NC4CCC(N5CC6(COC6)C5)CC4F)cccn3c2CC(F)(F)F)c(OCF)c1 (stereo not drawn) [Compound 78d]	–	A (A: GI50 of the compound ≤ GI50 of the reference compound)	A (A: EC50 of the compound≤EC50 of the reference compound)	< 1000
< 100	CCNC(=O)c1ccc(NCC#Cc2nc3c(N[C@@H]4CC[C@@H](N5CC6(COC6)C5)C[C@@H]4F)cccn3c2CC(F)(F)F)c(OC)c1 [Compound 50]	–	C (C: GI50 of the compound ≥ 3 * GI50 of the reference compound)	A (A: EC50 of the compound≤EC50 of the reference compound)	–
